From patent US7314879B2, “Melanocortin receptor agonists” (Eli Lilly and Company, priority 2002, dated 2008) come the findings set out here.

The target in assay [1] is T1, MC4 (Homo sapiens, UniProt P32245).
T1 construct: expressed in transfected cells; host or cells: HEK 293
Briefly: Radioligand binding assay: competitive inhibition of 125I-NDP-alpha-MSH binding to membranes of stably transfected HEK 293 cells. To be noted: 125I-NDP-alpha-MSH competition; Ki from IC50 by Cheng-Prusoff equation. As for the experimental part: The radioligand binding assay is used to identify competitive inhibitors of ^125I-NDP-alpha-MSH binding to cloned human MCRs using membranes from stably transfected human embryonic kidney (HEK) 293 cells.
HEK 293 cells transfected with human or rat melanocortinin receptors are grown either as adherent monolayers or suspension culture. Monolayer cells are grown in roller bottle cultures at 37° C. and 5% CO2/air atmosphere in a 3:1 mixture of Dulbecco's modified Eagle medium (DMEM) and Ham's F12 containing 25 mM L-glucose, 100 units/ml penicillin G, 100 microgram/ml streptomyocin, 250 nanogram/ml amphoterin B, 300 microgram/ml genticin and supplemented with 5% fetal bovine serum. Monolayer cells are adapted to suspension culture (Berg et al., Biotechniques Vol. 14, No.6, 1993) and are grown in spinner or shaker flasks (37° C. and 7.5% CO2/air overlay) in a modified DME/F12 medium containing 0.1 mM CaCl2, 2% equine serum and 100 microgram/ml sodium heparin (to prevent cell-cell aggregation). Cells are harvested by centrifugation, washed in PBS, and pellets are stored frozen at −80° C. until membrane preparations.
The cell pellets are resuspended in 10 volumes of membrane preparation buffer (i.e., 1 g pellet to 10 ml buffer) having the following composition: 50 mM Tris pH 7.5 @ 4° C., 250 mM sucrose, 1 mM MgCl2, Complete® EDTA-free protease inhibitor tablet (Boehringer Mannheim), and 24 micrograms/ml DNase I (Sigma, St. Louis, Mo.). The cells are homogenized with a motor-driven dounce using 20 strokes, and the homogenate is centrifuged at 38,000×g at 4° C. for 40 minutes. […]
Solutions of a compound of formula I (300 picomolar to 30 micromolar) or unlabelled NDP-alpha-MSH (1 picomolar to 100 nanomolar) are added to 150 microliters of membrane binding buffer to yield final concentrations (listed in parantheses). […] The radioactivity is quantified in a Wallac Trilux Microplate Scintillation counter. […]

Assay [2] concerns the target T1, MC4. Briefly: Functional agonist assay in HEK 293 cells stably expressing melanocortin receptor (luciferase reporter / whole cell cAMP accumulation). Format: cell-based. To be noted: for pEC50: agonist potency, concentration giving half maximal stimulation; for % Rel. Eff.: relative efficacy compared to NDP-alpha-MSH defined as 100% agonist. The text has this:
Functional cell based assays are developed to discriminate agonists and antagonists.
Agonist Assay: HEK 293 cells stably expressing a human melanocortin receptor (see e.g., Yang, et al., Mol-Endocrinol., 11(3): 274-80, 1997) are dissociated from tissue culture flasks using a trypsin/EDTA solution (0.25%; Life Technologies, Rockville, Md.). Cells are collected by centrifugation and resuspended in DMEM (Life Technologies, Rockville, Md.) supplemented with 1% L-glutamine and 0.5% fetal bovine serum. Cells are counted and diluted to 4.5×10^5/ml.
A compound of formula I is diluted in dimethylsulfoxide (DMSO) (3×10^−5 to 3×10^−10 M final concentrations) and 0.05 volume of compound solution is added to 0.95 volumes of cell suspension; the final DMSO concentration is 0.5%. After incubation at 37° C./5% CO2 for 5 hours, cells are lysed by addition of luciferin solution (50 mM Tris, 1 mM MgCl2, 0.2% Triton-X100, 5 mM DTT, 500 micromolar Coenzyme A, 150 micromolar ATP, and 440 micromolar luciferin) to quantify the activity of the reporter gene luciferase, an indirect measurement of intracellular cAMP production.
Luciferase activity is measured from the cell lysate using a Wallac Victor 2 luminometer. The amount of lumen production which results from a compound of formula I is compared to that amount of lumens produced in response to NDP-alpha-MSH, defined as a 100% agonist, to obtain the relative efficacy of a compound. The EC50 is defined as the compound concentration that results in half maximal stimulation, when compared to its own maximal level of stimulation.
In the agonist assay, compounds are prepared as 10 mM and NDP-aMSH (control) as 33.3 μM stock solutions in 100% DMSO. These are serially diluted in 100% DMSO. The compound plate is further diluted 1:200 in compound dilution buffer (HBSS-092, 1 mM Ascorbic Acid, 1 mM IBMX, 0.6% DMSO, 0.1% BSA). The final concentration range being 10 μM-100 pM for compound and 33.33 nM-0.3 pM for control in 0.5% DMSO. Transfer 20 μl from this plate into four PET 96-well plates (all assays are performed in duplicate for each receptor).
HEK 293 cells stably transfected with the MC3R and MC4R were grown in DMEM containing 10% FBS and 1% Antibiotic/Antimycotic Solution. On the day of the assay the cells were dislodged with enzyme free cell dissociation solution and resuspended in cell buffer (HBSS-092, 0.1% BSA, 10 mM HEPES) at 1×e6 cells/ml. Add 40 μl of cells/well to the PET 96-well plates containing 20 ul diluted compound and control. Incubate @ 37° C. in a waterbath for 20 minutes. Stop the assay by adding 50 μl Quench Buffer (50 mM Na Acetate, 0.25% Triton X-100).
Radioligand binding assays were run in SPA buffer (50 mM Sodium Acetate, 0.1% BSA). The beads, antibody and radioligand were diluted in SPA buffer to provide sufficient volume for each 96-well plate. To each quenched assay well was added 100 ul cocktail containing 33.33 ul of beads, 33.33 μl antibody and 33.33 μl ^125 I-cAMP. This was based on a final concentration of 6.3 mg/ml beads, 0.65% anti-goat antibody and 61 pM of ^125I-cAMP (containing 25000-30000 CPM) in a final assay volume of 210 μl. The plates were counted in a Wallac MicroBeta counter after a 12-hour incubation.
The data was converted to pmoles cAMP using a standard curve assayed under the same conditions. The data was analyzed using Activity Base software to generate agonist potencies (EC50) and percent relative efficacy data to NDP-aMSH.
(In general: A reporter such as luciferase makes a cellular process visible.)

Each structure is given as a SMILES string. pEC50, pKi: −log10 of the molar value.

T1 sequence (P32245 whole entry): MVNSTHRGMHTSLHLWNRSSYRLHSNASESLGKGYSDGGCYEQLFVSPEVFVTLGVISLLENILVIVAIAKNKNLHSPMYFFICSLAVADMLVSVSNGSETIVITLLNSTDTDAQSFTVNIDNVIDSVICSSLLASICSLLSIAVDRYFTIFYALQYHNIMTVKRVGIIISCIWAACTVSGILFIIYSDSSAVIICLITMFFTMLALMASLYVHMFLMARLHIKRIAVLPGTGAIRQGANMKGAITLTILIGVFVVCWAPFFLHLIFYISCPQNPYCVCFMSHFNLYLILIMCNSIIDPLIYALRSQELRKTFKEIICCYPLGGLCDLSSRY

Take `CC(C)CC1(N2CCN(C(=O)[C@@H](Cc3ccc(Cl)cc3)NC(=O)CC3NCc4ccccc43)CC2)CCCC1` (stereo partly drawn) [Example 8I]: the pKi (commonly the Ki on a negative log10 scale, so that one unit is a factor of ten) on MC4 [1] was 7.54. For the same compound, on MC4 [2], the pEC50 (commonly the negative decadic logarithm of the EC50, by convention in mol/L) was 7.00 and the “% Rel. Eff.” value worked out at 124%.
On the same counts, the results for `CN1CCC(Cc2ccccc2F)(N2CCN(C(=O)[C@@H](Cc3ccc(Cl)cc3)NC(=O)CC3NCc4ccccc43)CC2)CC1` (stereo partly drawn) [Example 4I] are 7.61, 7.72 and 114%.
On the same counts, the results for `CN1CCC(CC2CCCCC2)(N2CCN(C(=O)[C@@H](Cc3ccc(Cl)cc3)NC(=O)CC3NCc4ccccc43)CC2)CC1` (stereo partly drawn) [Example 10I] are 8.19, 7.60 and 112%.
